# PubChem BioAssay AID1918998 (Molecular Pharmacology Branch, DTP, NCI, 2023)
# Tested on: 521955-158-R2-J5-PDC complex spheroid growth
# Experiment: Anticancer human tumor 521955-158-R2-J5-PDC patient-derived pancreatic carcinoma cell line growth inhibition [AhR]
# Conditions: for IC50: curve of first compound; for viability, T/C: stronger effect = lower value
# Description: Multicellular complex tumor spheroid response to aryl hydrocarbon receptor antagonists in combination with a variety of drugs and investigational agents in selected tumor cell lines
# The current study was undertaken to assess response to aryl hydrocarbon receptor antagonists in combination with standard-of-care drugs and investigational agents in solid tumor complex spheroid models. Complex spheroids include a stromal component modeled by human endothelial cells (HUVEC) and fibroblasts modeled by human mesenchymal stem cells (MSCs). The concentration ranges selected for each drug and investigational agent were based upon clinically achievable concentrations if the clinical Cmax of the agent was known.
# Compounds. The drugs and investigational agents: BAY 2416964 (NSC825713), GNF351 (NSC835774), CH-223191 (NSC835775), CPI-455 (NSC825282), aza-TdCyd (NSC777586), decitabine (NSC127716), belinostat (NSC758774), entinostat (NSC756642), pevonedistat (NSC761192), tazemetostat (NSC777109), talazoparib (NSC765396), olaparib (NSC753686), selinexor (NSC780203), nedisertib (M3814, NSC802822), bortezomib (NSC756655), venetoclax (NSC766270), doxorubicin (NSC123127), elimusertib (BAY189344, NSC800525), ceralasertib (AZD6738, NSC777638), TAK-243 (NSC785004), alisertib (NSC759677), etoposide (NSC141540), topotecan (NSC609699), eribulin (NSC707389), gemcitabine (NSC613327), carboplatin (NSC241240), cisplatin (NSC119875), and SN-38 (NSC673596) were obtained from the National Cancer Institute (NCI) Developmental Therapeutics Program Chemical Repository (32). The FDA-approved anticancer drug set is available from the Developmental Therapeutics Program at https://dtp.cancer.gov/organization/dscb/obtaining/available plates.htm. […] The stock solutions were prepared in dimethyl sulfoxide (DMSO, Sigma-Aldrich, St. Louis, MO, cat. D2650), except for the platinum compounds which were prepared in saline (Quality Biological, Gaithersburg, MD, cat. 114-055-101), at 800-fold the tested concentration and stored at -70 degrees C prior to their use. All drugs and investigational agents were tested over a range starting from a high concentration at or near the clinical Cmax and decreasing in half-log increments. If the clinical Cmax for an agent had not been determined, the highest concentration tested was 10 microM (Table 1).
# Cell Culture. All cells were maintained in an incubator at 37 degrees C and 5% CO2 with 95% humidity. The PDC lines were cultured according to standard operating procedures established by the NCI PDMR (https://pdmr.cancer.gov). Briefly, all PDCs were thawed and cultured in Matrigel-coated flasks prepared with a working solution of 1X Ham's F-12 nutrient mix, without supplementation (Invitrogen, Waltham, MA, cat. 11765054), 100 U/mL penicillin-streptomycin (Invitrogen, cat. 15140122), and 2.5% Matrigel (Corning Inc., Corning, NY, cat. 354248) for the first three passages. All PDCs were cultured in complete DMEM/F-12 media containing advanced DMEM/F-12 (Invitrogen, cat. 12634028), 4.9% defined fetal bovine serum, heat inactivated (HyClone Laboratories Inc., Logan, UT, cat. SH30070.03HI), 389 ng/mL hydrocortisone (Sigma-Aldrich, cat. H4001), 9.7 ng/mL human EGF recombinant protein (Invitrogen, cat. PHG0313), 23.4 microg/mL adenine (Sigma-Aldrich, cat. A2786), 97.3 U/mL penicillin-streptomycin (Invitrogen, cat. 15140122), 1.9 mM L-glutamine (Invitrogen, cat. 25030081), and 9.7 microM Y-27632 dihydrochloride (Tocris Bioscience, Bristol, United Kingdom, cat. 1254). The PDCs were cultured in complete DMEM/F12 media without 10 microM Y-27632 dihydrochloride for at least two passages prior to the screen. The established cell lines NCI-H1341 and […] were cultured in DMEM/F-12, HEPES (Invitrogen, cat. 11330032), 5% defined fetal bovine serum (HyClone Laboratories Inc., cat. SH30070.03), ITS premix universal culture supplement [insulin (5 microg/mL), transferrin (5 microg/mL), and selenious acid (5 ng/mL)] […]
# [1] = second compound 0.1 µM, first compound 0.0316 µM
# [2] = second compound 0.1 µM, first compound 0.1 µM
# [3] = second compound 0.1 µM, first compound 0.316 µM
# [4] = second compound 0.1 µM, first compound 1 µM
# [5] = second compound 0.1 µM, first compound 3.16 µM
# [6] = second compound 0.1 µM, first compound 10 µM
# [7] = second compound 0.316 µM, first compound 0.0316 µM
# [8] = second compound 0.316 µM, first compound 0.1 µM
# [9] = second compound 0.316 µM, first compound 0.316 µM
# [10] = second compound 0.316 µM, first compound 1 µM
# [11] = second compound 0.316 µM, first compound 3.16 µM
# [12] = second compound 0.316 µM, first compound 10 µM
# [13] = second compound 1 µM, first compound 0.0316 µM
# [14] = second compound 1 µM, first compound 0.1 µM
# [15] = second compound 1 µM, first compound 0.316 µM
# [16] = second compound 1 µM, first compound 1 µM
# [17] = second compound 1 µM, first compound 3.16 µM
# [18] = second compound 1 µM, first compound 10 µM
# [19] = second compound 3.16 µM, first compound 0.0316 µM
# [20] = second compound 3.16 µM, first compound 0.1 µM
# [21] = second compound 3.16 µM, first compound 0.316 µM
# [22] = second compound 3.16 µM, first compound 1 µM
# [23] = second compound 3.16 µM, first compound 3.16 µM
# [24] = second compound 3.16 µM, first compound 10 µM
# [25] = second compound 10 µM, first compound 0.0316 µM
# [26] = second compound 10 µM, first compound 0.1 µM
# [27] = second compound 10 µM, first compound 0.316 µM
# [28] = second compound 10 µM, first compound 1 µM
# [29] = second compound 10 µM, first compound 3.16 µM
# [30] = second compound 10 µM, first compound 10 µM
# 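For viability, T/C in this document: spheroids mix tumor cells with HUVEC endothelium and human MSC stroma; luminescence taken as viability surrogate after a week of drug exposure.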
compound,measurement,setting,value
CC(C)CC(NC(=O)C(Cc1ccccc1)NC(=O)c1cnccn1)B(O)O (stereo not given) + CC(CO)NC(=O)c1cc(-c2ccc(Cl)cc2)nn(-c2cnn(C)c2)c1=O,IC50,second compound 0.1 µM,0.00438 µM
same,IC50,second compound 0.316 µM,0.00536 µM
same,IC50,second compound 1 µM,0.00434 µM
same,IC50,second compound 3.16 µM,0.00486 µM
same,IC50,second compound 10 µM,0.00416 µM
same,"viability, T/C","second compound 0.1 µM, first compound 0.000949 µM",78.8%
same,"viability, T/C","second compound 0.1 µM, first compound 0.003 µM",71.6%
same,"viability, T/C","second compound 0.1 µM, first compound 0.00949 µM",5.92%
same,"viability, T/C","second compound 0.1 µM, first compound 0.03 µM",2.45%
same,"viability, T/C","second compound 0.1 µM, first compound 0.0949 µM",2%
same,"viability, T/C","second compound 0.1 µM, first compound 0.3 µM",0.19%
same,"viability, T/C","second compound 0.316 µM, first compound 0.000949 µM",103%
same,"viability, T/C","second compound 0.316 µM, first compound 0.003 µM",94.7%
same,"viability, T/C","second compound 0.316 µM, first compound 0.00949 µM",6.1%
same,"viability, T/C","second compound 0.316 µM, first compound 0.03 µM",1.23%
same,"viability, T/C","second compound 0.316 µM, first compound 0.0949 µM",0.12%
same,"viability, T/C","second compound 0.316 µM, first compound 0.3 µM",1.89%
same,"viability, T/C","second compound 1 µM, first compound 0.000949 µM",113%
same,"viability, T/C","second compound 1 µM, first compound 0.003 µM",70.6%
same,"viability, T/C","second compound 1 µM, first compound 0.00949 µM",6.39%
same,"viability, T/C","second compound 1 µM, first compound 0.03 µM",2.84%
same,"viability, T/C","second compound 1 µM, first compound 0.0949 µM",0.51%
same,"viability, T/C","second compound 1 µM, first compound 0.3 µM",0.29%
same,"viability, T/C","second compound 3.16 µM, first compound 0.000949 µM",83.5%
same,"viability, T/C","second compound 3.16 µM, first compound 0.003 µM",81.6%
same,"viability, T/C","second compound 3.16 µM, first compound 0.00949 µM",6.11%
same,"viability, T/C","second compound 3.16 µM, first compound 0.03 µM",0.25%
same,"viability, T/C","second compound 3.16 µM, first compound 0.0949 µM",1.98%
same,"viability, T/C","second compound 3.16 µM, first compound 0.3 µM",1.99%
same,"viability, T/C","second compound 10 µM, first compound 0.000949 µM",68.2%
same,"viability, T/C","second compound 10 µM, first compound 0.003 µM",68.3%
same,"viability, T/C","second compound 10 µM, first compound 0.00949 µM",3.86%
same,"viability, T/C","second compound 10 µM, first compound 0.03 µM",0.37%
same,"viability, T/C","second compound 10 µM, first compound 0.0949 µM",0.52%
same,"viability, T/C","second compound 10 µM, first compound 0.3 µM",1.58%
Nc1ccccc1NC(=O)c1ccc(CNC(=O)OCc2cccnc2)cc1 + CC(CO)NC(=O)c1cc(-c2ccc(Cl)cc2)nn(-c2cnn(C)c2)c1=O,IC50,second compound 0.1 µM,4.56 µM
same,IC50,second compound 0.316 µM,3.74 µM
same,IC50,second compound 1 µM,2.94 µM
same,IC50,second compound 3.16 µM,3.62 µM
same,IC50,second compound 10 µM,3.36 µM
same,"viability, T/C",[1],119%
same,"viability, T/C",[2],126%
same,"viability, T/C",[3],123%
same,"viability, T/C",[4],87.9%
same,"viability, T/C",[5],66.2%
same,"viability, T/C",[6],22.9%
same,"viability, T/C",[7],111%
same,"viability, T/C",[8],130%
same,"viability, T/C",[9],114%
same,"viability, T/C",[10],85.9%
same,"viability, T/C",[11],57.1%
same,"viability, T/C",[12],25.2%
same,"viability, T/C",[13],118%
same,"viability, T/C",[14],134%
same,"viability, T/C",[15],120%
same,"viability, T/C",[16],77.1%
same,"viability, T/C",[17],54.6%
same,"viability, T/C",[18],20%
same,"viability, T/C",[19],115%
same,"viability, T/C",[20],109%
same,"viability, T/C",[21],117%
same,"viability, T/C",[22],75.6%
same,"viability, T/C",[23],58.8%
same,"viability, T/C",[24],17.6%
same,"viability, T/C",[25],94.7%
same,"viability, T/C",[26],91%
same,"viability, T/C",[27],101%
same,"viability, T/C",[28],81.6%
same,"viability, T/C",[29],52.6%
same,"viability, T/C",[30],14.1%
O=C(C=Cc1cccc(S(=O)(=O)Nc2ccccc2)c1)NO + CC(CO)NC(=O)c1cc(-c2ccc(Cl)cc2)nn(-c2cnn(C)c2)c1=O,IC50,second compound 0.1 µM,4.62 µM
same,IC50,second compound 0.316 µM,4.89 µM
same,IC50,second compound 1 µM,3.6 µM
same,IC50,second compound 3.16 µM,5.85 µM
same,IC50,second compound 10 µM,4.59 µM
same,"viability, T/C",[1],108%
same,"viability, T/C",[2],107%
same,"viability, T/C",[3],122%
same,"viability, T/C",[4],93.2%
same,"viability, T/C",[5],58.3%
same,"viability, T/C",[6],35.5%
same,"viability, T/C",[7],114%
same,"viability, T/C",[8],135%
same,"viability, T/C",[9],131%
same,"viability, T/C",[10],91.2%
same,"viability, T/C",[11],62.6%
same,"viability, T/C",[12],35%
same,"viability, T/C",[13],131%
same,"viability, T/C",[14],126%
same,"viability, T/C",[15],120%
same,"viability, T/C",[16],92.9%
same,"viability, T/C",[17],53.2%
same,"viability, T/C",[18],26.5%
same,"viability, T/C",[19],117%
same,"viability, T/C",[20],101%
same,"viability, T/C",[21],114%
same,"viability, T/C",[22],98.1%
same,"viability, T/C",[23],67.3%
same,"viability, T/C",[24],35.1%
same,"viability, T/C",[25],94.1%
same,"viability, T/C",[26],90.6%
same,"viability, T/C",[27],82.8%
same,"viability, T/C",[28],86.2%
same,"viability, T/C",[29],61.4%
same,"viability, T/C",[30],25.1%
